Laboratory results from ChEMBL document CHEMBL5120766, “Recent insight into the biological activities and SAR of quinolone derivatives as multifunctional scaffold” (Bioorg Med Chem, 2022).
≈ marks a conversion by molar mass, not a printed value.

Tests used:
[1] = tested on: Plasmodium falciparum; assay: Antiplasmodial activity against Plasmodium falciparum 3D7 assessed as cell growth inhibition; format: functional, organism-based
[2] = tested on: Mycobacterium tuberculosis; assay: Antimycobacterial activity against Mycobacterium tuberculosis H37Rv assessed as inhibition of bacterial growth measured after 7 days by alamar blue dye based microplate analysis; format: functional; conditions: 168 h, time 7 day
[3] = tested on: Escherichia coli; assay: Antibacterial activity against Escherichia coli PTCC 1047 assessed as zone of inhibition incubated for 24 hrs by cup-plate agar diffusion method; format: functional
[4] = tested on: Bacillus subtilis; assay: Antibacterial activity against Bacillus subtilis PTCC 1207 assessed as zone of inhibition incubated for 24 hrs by cup-plate agar diffusion method; format: functional
[5] = tested on: Mycobacterium tuberculosis; assay: Antimycobacterial activity against Mycobacterium tuberculosis H37Rv assessed as inhibition of bacterial growth measured after 24 hrs by turbidity based analysis; format: functional
[6] = tested on: Human immunodeficiency virus 1; assay: Antiviral activity against HIV1 infected in human MT4 cells by MTT assay; format: functional, organism-based; conditions: Human immunodeficiency virus 1, MT4
[7] = tested on: Human immunodeficiency virus 2; assay: Antiviral activity against HIV2 infected in human MT4 cells by MTT assay; format: functional, organism-based; conditions: Human immunodeficiency virus 2, MT4
[8] = tested on: Plasmodium falciparum; assay: Antiplasmodial activity against chloroquine sensitive Plasmodium falciparum NF54 infected in human red blood cells assessed as reduction in [3H]-hypoxanthine incorporation pretreated for 48 hrs followed by [3H]-hypoxanthine addition measured after 24 hrs by scintillation counting method; format: functional, organism-based
[9] = tested on: Escherichia coli; assay: Antibacterial activity against Escherichia coli ATCC 8739 assessed as zone of inhibition by agar dilution method; format: functional
[10] = tested on: Staphylococcus aureus; assay: Antibacterial activity against Staphylococcus aureus ATCC 6538 assessed as zone of inhibition by agar dilution method; format: functional
[11] = tested on: Pseudomonas aeruginosa; assay: Antibacterial activity against Pseudomonas aeruginosa NCDC 105 assessed as zone of inhibition at 50 ug/ml by agar well diffusion method; format: functional; conditions: read-out: DIZ
[12] = tested on: Pseudomonas aeruginosa; assay: Antibacterial activity against Pseudomonas aeruginosa NCDC 105 assessed as zone of inhibition at 100 ug/ml by agar well diffusion method; format: functional; conditions: read-out: DIZ
[13] = tested on: Pseudomonas aeruginosa; assay: Antibacterial activity against Pseudomonas aeruginosa NCDC 105 assessed as zone of inhibition at 10 ug/ml by agar well diffusion method; format: functional; conditions: read-out: DIZ
[14] = tested on: Staphylococcus epidermidis; assay: Antibacterial activity against Staphylococcus epidermidis ATCC 12228 incubated for 18 hrs by agar dilution method; format: functional
[15] = tested on: Staphylococcus aureus; assay: Antibacterial activity against Staphylococcus aureus ATCC 6538p incubated for 18 hrs by agar dilution method; format: functional
[16] = tested on: Bacillus subtilis; assay: Antibacterial activity against Bacillus subtilis ATCC 6633 incubated for 18 hrs by agar dilution method; format: functional
[17] = molecular target: Cytochrome P450 3A4 (Homo sapiens, UniProt P08684); assay: Inhibition of CYP3A4 in human liver microsomes using midazolam as substrate; format: ADME, Microsome
[18] = tested on: A549; assay: Antiproliferative activity against human A549 cells assessed as cell growth inhibition measured after 72 hrs by MTT assay; format: functional, cell-based; conditions: A549, 72 h
[19] = tested on: Escherichia coli; assay: Antibacterial activity against Escherichia coli ATCC 35218 incubated for 24 hrs by serial dilution method; format: functional
[20] = tested on: Klebsiella pneumoniae; assay: Antibacterial activity against Klebsiella pneumoniae ATCC 35657 incubated for 24 hrs by serial dilution method; format: functional
[21] = tested on: Bacteroides fragilis; assay: Antibacterial activity against Bacteroides fragilis PA-2-II incubated for 18 hrs by microbroth dilution method; format: functional
[22] = tested on: Clostridium perfringens; assay: Antibacterial activity against Clostridium perfringens 22 incubated for 18 hrs by microbroth dilution method; format: functional
[23] = tested on: Plasmodium falciparum; assay: Antiplasmodial activity against Plasmodium falciparum FCR-3 assessed as cell growth inhibition; format: functional, organism-based
[24] = tested on: Human immunodeficiency virus 1; assay: Antiviral activity against HIV1 A17 mutant infected in human C8166 cells; format: functional, organism-based; conditions: Human immunodeficiency virus 1, A17, C8166
[25] = tested on: Human immunodeficiency virus 1; assay: Antiviral activity against wild type HIV1 infected in human C8166 cells; format: functional, organism-based; conditions: Human immunodeficiency virus 1, C8166

Sequence of Cytochrome P450 3A4 (P08684 whole entry): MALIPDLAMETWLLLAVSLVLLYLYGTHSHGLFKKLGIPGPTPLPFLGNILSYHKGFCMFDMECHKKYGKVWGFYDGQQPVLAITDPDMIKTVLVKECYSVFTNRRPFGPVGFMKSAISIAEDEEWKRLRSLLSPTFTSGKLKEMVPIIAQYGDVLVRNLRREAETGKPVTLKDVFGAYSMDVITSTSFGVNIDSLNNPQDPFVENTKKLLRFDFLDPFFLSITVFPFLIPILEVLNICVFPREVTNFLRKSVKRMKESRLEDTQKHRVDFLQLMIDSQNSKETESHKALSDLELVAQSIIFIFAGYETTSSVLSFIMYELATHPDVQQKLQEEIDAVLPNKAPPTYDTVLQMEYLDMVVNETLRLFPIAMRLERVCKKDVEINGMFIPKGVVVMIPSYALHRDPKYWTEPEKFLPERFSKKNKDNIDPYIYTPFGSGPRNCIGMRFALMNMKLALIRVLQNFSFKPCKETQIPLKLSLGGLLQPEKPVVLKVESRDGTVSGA

## C[C@H]1[C@@H](OC(=O)c2cn(C3CC3)c3cc(N4CCNCC4)c(F)cc3c2=O)O[C@@H]2O[C@@]3(C)CC[C@H]4[C@H](C)CC[C@@H]1[C@@]24OO3
[1]
  IC50: 9.97 nM

## COc1ccc(C(=O)N/N=C(/C)CCN2CCN(c3c(F)cc4c(=O)c(C(=O)O)cn(C5CC5)c4c3OC)CC2)cc1
[2]
  MIC: 0.5 µM (≈ 0.29 µg/mL)

## CCn1cc(C(=O)O)c(=O)c2cc(F)c(N3CCN(C/C(=N\OC)c4cc5cccc(OC)c5oc4=O)CC3)cc21
[3]
  diameter of the inhibition zone (DIZ): 32 mm
[4]
  diameter of the inhibition zone (DIZ): 36 mm

## CCn1cc(C(=O)O)c(=O)c2cc(F)c(N3CCN(CC(=O)Nc4nnc(-c5ccc(Cl)cc5Cl)s4)CC3)cc21
[5]
  MIC: 8 µg/mL (≈ 13.2 µM)

## Cn1cc(C(=O)O)c(=O)c2ccc(N3CCN(c4nc5ccccc5s4)CC3)nc21
[6]
  EC50: 60 nM
[7]
  EC50: 40 nM

## CCn1cc(C(=O)O)c(=O)c2cc(F)c(N3CCN(C/C(=N\OC)c4cc5cccc(OC)c5oc4=O)CC3)nc21
[3]
  diameter of the inhibition zone (DIZ): 35 mm
[4]
  diameter of the inhibition zone (DIZ): 39 mm

## Cn1c(-c2ccc(CCCCCCCCCCN3CCCCC3)cc2)cc(=O)c2ccccc21
[8]
  IC50: 820 nM

## O=C([O-])c1cn(CCn2cc(C(=O)[O-])c(=O)c3cc(F)c(N4CC5CCCNC5C4)c(F)c32)c2c(F)c(N3CC4CCCNC4C3)c(F)cc2c1=O.[Na+].[Na+] (stereo unspecified)
[9]
  diameter of the inhibition zone (DIZ): 22 mm
[10]
  diameter of the inhibition zone (DIZ): 15 mm

## O=C(O)c1cn(C2CC2)c2cc(N3CCN(CNc4nc5ccc([N+](=O)[O-])cc5s4)CC3)c(F)cc2c1=O
[11]
  zone of inhibition at 50 µg/mL: 5.5 mm
[12]
  zone of inhibition at 100 µg/mL: 6.3 mm
[13]
  zone of inhibition at 10 µg/mL: 3.5 mm

## CCn1cc(C(=O)O)c(=O)c2cc(F)c(N3CCN(CNc4nc5ccc(F)cc5s4)CC3)cc21
[11]
  zone of inhibition at 50 µg/mL: 3.8 mm
[12]
  zone of inhibition at 100 µg/mL: 4.8 mm
[13]
  zone of inhibition at 10 µg/mL: 3.3 mm

## O=C(O)c1cn(-c2ccc(F)cc2)c2cc(N3CCN(C/C(=N\O)c4ccccc4)CC3)c(F)cc2c1=O
[14]
  MIC: < 0.125 µg/mL
[15]
  MIC: < 0.125 µg/mL
[16]
  MIC: < 0.125 µg/mL

## COc1c(N2CC[C@@H](C3(N)CC3)C2)ccc2c(=O)c(C(=O)O)cn([C@@H]3C[C@@H]3F)c12
[17]
  Ki: 67.9 µM

## N=C(NS(=O)(=O)c1ccccc1C(F)(F)F)N1CCN(c2cc3c(cc2F)c(=O)c(C(=O)O)cn3-c2ccc(F)cc2F)CC1
[18]
  IC50: 9 nM

## O=C(NO)c1cn(C2CC2)c2cc(-n3cc(CN4CCOCC4)nn3)c(F)cc2c1=O
[19]
  MIC: 4 µg/mL (≈ 9.34 µM)
[20]
  MIC: 4 µg/mL (≈ 9.34 µM)

## Cn1c(-c2ccc(CCCCCCBr)cc2)cc(=O)c2ccccc21
[8]
  IC50: 90 nM

## Cc1c(N2C[C@]3(N)CCC[C@]3(F)C2)c(F)cc2c(=O)c(C(=O)O)cn([C@@H]3C[C@@H]3F)c12.Cl.O.O
[21]
  MIC: ≤ 0.05 µg/mL
[22]
  MIC: ≤ 0.05 µg/mL

## Cn1cc(C(=O)N/N=C\c2ccccn2)c(=O)c2cc(F)ccc21
[23]
  IC50: 3.3 µM

## CC(C)[C@@H](CO)n1cc(C(=O)O)c(=O)c2c(F)c(Cc3cccc(Cl)c3F)ccc21
[24]
  EC50: 82 nM
[25]
  EC50: 32 nM
